Converted amounts (≈) assume the structure as drawn. Where only a bound is given, the exact number is not on record here.

One assay has as its system ZR-75-1. Kind of assay: Cytotoxicity against human ZR-75-1 cells after 72 hrs by SRB assay. The format is functional. The following applies: ZR-75-1, 72 h, read-out: ED50 (the source's name). For orientation: The SRB assay estimates cell density from bound dye.
The next assay concerns LNCaP. Kind of assay: Cytotoxicity against human LNCAP cells after 72 hrs by SRB assay. The format is functional. Particulars: read-out: ED50 (the source's name).
For a further assay, the system named is Lu1. In words: Cytotoxicity against human Lu1 cells after 72 hrs by SRB assay. The format is functional. Particulars: Lu1, 72 h, read-out: ED50 (the source's name).
The subject of a further assay is Col2. Kind of assay: Cytotoxicity against human Col2 cells after 72 hrs by SRB assay. Type of assay: functional. The following applies: Col2, 72 h, read-out: ED50 (the source's name).
Assay [1] can be described thus: Cytotoxicity against human multidrug resistant KBV1 cells in absence of vinblastine after 72 hrs by SRB assay. The format is functional. Particulars: KB-V1, 72 h, read-out: ED50 (the source's name).
Assay [2] is described as follows: Cytotoxicity against human U373 cells after 72 hrs by SRB assay. Type of assay: functional, U-373MG ATCC. The following applies: U373 MG, read-out: ED50 (the source's name).
Assay [3] can be described thus: Cytotoxicity against human BC1 cells after 72 hrs by SRB assay. Particulars: BC1, 72 h, read-out: ED50 (the source's name). Type of assay: functional.
A further assay concerns A-431. Kind of assay: Cytotoxicity against human A431 cells after 72 hrs by SRB assay. The format is functional. Particulars: A-431, 72 h, read-out: ED50 (the source's name).
Assay [4] can be described thus: Cytotoxicity against human KB3 cells after 72 hrs by SRB assay. Type of assay: functional. Particulars: KB3, 72 h, read-out: ED50 (the source's name).
For another assay, the system named is P388. Kind of assay: Cytotoxicity against mouse P388 cells after 72 hrs by SRB assay. Type of assay: functional. The following applies: P388, 72 h, read-out: ED50 (the source's name).
The nature of assay [5]: Cytotoxicity against human multidrug resistant KBV1 cells in presence of vinblastine. Particulars: KB-V1, read-out: ED50 (the source's name). The format is functional.
A further assay relates to HT. Kind of assay: Cytotoxicity against human HT cells after 72 hrs by SRB assay. The format is functional. The following applies: read-out: ED50 (the source's name).
The next assay concerns SK-MEL-2. In words: Cytotoxicity against human SK-MEL-2 cells after 72 hrs by SRB assay. Type of assay: functional. Particulars: SK-MEL-2, 72 h, read-out: ED50 (the source's name).

For the compound `CN1CCc2cc3c(c4c2[C@H]1Cc1ccccc1-4)OCO3`, the EC50 was greater than 20 µg/mL in the assay on ZR-75-1; 10.7 µg/mL (≈ 38.3 µM) with LNCaP; 6.6 µg/mL (≈ 23.6 µM) in the assay on Lu1; 5.8 µg/mL (≈ 20.8 µM) in the assay on Col2; greater than 20 µg/mL in assay [1]; 5 µg/mL (≈ 17.9 µM) in [2]. Besides, the EC50 is 8.3 µg/mL (≈ 29.7 µM) in assay [3]; 4.3 µg/mL (≈ 15.4 µM) in the assay with A-431; greater than 20 µg/mL in [4]; greater than 5 µg/mL in the assay with P388; 0.6 µg/mL in assay [5]; 6.4 µg/mL (≈ 22.9 µM) in the assay on HT. The EC50 in the assay on SK-MEL-2 is greater than 20 µg/mL.

For the origin of these results see ChEMBL document CHEMBL1159240, “(-)-Roemerine, an aporphine alkaloid from Annona senegalensis that reverses the multidrug-resistance phenotype with cultured cells” (1995).
